Reference: article PMC4924314, “Vertebrate TFPI-2 C-terminal peptides exert therapeutic applications against Gram-negative infections” (BMC Microbiology, 2016)

Experiments:
E. coli ATCC 25922 = test: Viable count analysis in mouse plasma; type: cell-based, Escherichia coli; conditions: E. coli ATCC 25922, viable count, mouse plasma (Figure S2)
Method: E. coli were grown to mid-exponential phase in Todd-Hewitt (TH). Bacteria were washed and diluted in 10 mM Tris, pH 7.4 either alone or with 20 % human or mouse (BALB/c) citrate-plasma. Bacterial (2 × 10^6 cfu/ml) were incubated in 50 μl, at 37 °C for 1 h with the C-terminal TFPI-2 derived peptides at the indicated concentrations. Serial dilutions of the incubation mixture were plated on TH agar, followed by incubation at 37 °C overnight and cfu determination. Additional file 1: Figure S1. Phylogenetic tree analysis of full-length and reminder protein except C-terminal TFPI-2 from vertebrates. Phylogenetic tree from 72 vertebrate TFPI-2 species was constructed using Neighbour-Joining tree with 1000 bootstrap replications on MEGA6. (PDF 54 kb) Additional file 2: Figure S2. Activities of TFPI-2 C-terminal derived peptides in mouse plasma. (Left) The bactericidal activity of mouse VKG24 peptide was assessed in physiological buffer conditions using viable count analysis. E. coli ATCC 25922 were grown to mid-logarithmic phase and incubated with varying concentrations of peptide. The antimicrobial activity was determined by plating serial dilutions of bacteria on TH agar plates and number of cfu was counted after overnight incubation. (Right) The activated partial thromboplastin time (aPTT) was determined by addition of buffer or 50 μM of VKG24 peptide to mouse plasma. […]

[1] = system: intrinsic pathway of coagulation; test: Activated partial thromboplastin time (aPTT) in mouse plasma; type: biochemical; conditions: peptide 50 μM, n = 3 (Figure S2)
Method: All clotting times were analyzed using a coagulometer (Amelung, Lemgo, Germany). For determination of activated partial thromboplastin time (aPTT), 100 μl of a kaolin-containing solution (Technoclone) was added to the 100 μl of fresh citrate plasma or citrate plasma peptide mix and incubated at 37 °C for 200 s before clot formation was initiated by adding 100 μl of 30 mM fresh CaCl2 solution. For detection of prothrombin time (PT, thromboplastin reagent (Trinity Biotech)) 100 μl of fresh citrate plasma were incubated 60 s at 37 °C before clot formation was initiated by adding 100 μl of clotting reagent. Additional file 1: Figure S1. Phylogenetic tree analysis of full-length and reminder protein except C-terminal TFPI-2 from vertebrates. Phylogenetic tree from 72 vertebrate TFPI-2 species was constructed using Neighbour-Joining tree with 1000 bootstrap replications on MEGA6. (PDF 54 kb) Additional file 2: Figure S2. […] (Left) The bactericidal activity of mouse VKG24 peptide was assessed in physiological buffer conditions using viable count analysis. […] The antimicrobial activity was determined by plating serial dilutions of bacteria on TH agar plates and number of cfu was counted after overnight incubation. (Right) The activated partial thromboplastin time (aPTT) was determined by addition of buffer or 50 μM of VKG24 peptide to mouse plasma. […]

[2] = system: E. coli LPS-induced septic shock in Balb/c mice; test: LPS-induced septic shock mouse model (survival, weight); type: in vivo; conditions: 10 mg/kg E. coli LPS i.p.
Method: (§1) Fig. 6 Treatment of LPS-induced septic shock mice with a mouse TFPI-2 derived peptide. Septic shock in Balb/c mice was induced by i.p. injection of 10 mg/kg E. coli LPS. […] Statistical comparisons of survival curves were performed using the Mantel-Cox’s test. ***P ≤ 0.0003. b Weight was determined daily. c Clotting times of aPTT and PT was measured in citrate plasma 24 h after LPS injection (n = 8). d The indicated cytokines were analyzed in plasma 24 h after LPS injection (n = 8). Statistical analysis for C-D, one-way ANOVA with Tukey’s multiple comparisons post-test was used. **P ≤ 0.003, ****P ≤ 0.0001
(§2) Male/female balb/c mice (8 weeks, 21 ± 5 g) were injected intraperitoneally (i.p.) with 10 mg E. coli 0111:B4 LPS (Sigma) per kg of body weight. Thirty minutes after LPS injection, 0.5 mg VKG24 (25 mg/kg) or PBS buffer alone (control) were injected i.p. into the mice. Status and weight were monitored daily for seven days. Mice where immobilization and/or shaking was observed were euthanized by an overdose of isoflurane (Abbott) and counted as non-survivors. For determination of cytokine levels in mouse plasma, animals were sacrificed 24 h after LPS injection. The blood was collected immediately by cardiac puncture into citrate tubes.

[3] = system: intrinsic and extrinsic coagulation pathways; test: Clotting times (aPTT, PT) in citrate plasma of LPS-injected mice; type: in vivo, mouse; conditions: peptide ~25 mg/kg i.p.
Method: Fig. 6 Treatment of LPS-induced septic shock mice with a mouse TFPI-2 derived peptide. […] Statistical analysis for C-D, one-way ANOVA with Tukey’s multiple comparisons post-test was used. **P ≤ 0.003, ****P ≤ 0.0001
as §2
All clotting times were analyzed using a coagulometer (Amelung, Lemgo, Germany). For determination of activated partial thromboplastin time (aPTT), 100 μl of a kaolin-containing solution (Technoclone) was added to the 100 μl of fresh citrate plasma or citrate plasma peptide mix and incubated at 37 °C for 200 s before clot formation was initiated by adding 100 μl of 30 mM fresh CaCl2 solution. For detection of prothrombin time (PT, thromboplastin reagent (Trinity Biotech)) 100 μl of fresh citrate plasma were incubated 60 s at 37 °C before clot formation was initiated by adding 100 μl of clotting reagent.

[4] = system: IL-6, MCP-1, IFN-γ, IL-10; test: Cytokine assay in plasma of LPS-injected mice; type: in vivo, mouse; conditions: 24 h after LPS injection, peptide ~25 mg/kg i.p., n = 8
Method: as §1, §2
Cytokines IL-6, IL-10, MCP-1, INF-γ and TNF-α were measured in plasma from mice infected by E. coli LPS (with or without peptide treatment) using the Cytometric bead array; mouse inflammation kit (Becton Dickinson AB) according to the manufacturer’s instructions. All plasma samples were stored at −80 °C before the analysis.

[5] = citrate plasma 24 h after LPS injection, n = 8

For “VKGWKKPKRWKIGDFLPRFWKHLS [VKG24, mouse TFPI-2 C-terminal derived peptide (O35536)]”, the “antimicrobial activity in mouse plasma” value (E. coli ATCC 25922) was “potent”, the “anti-coagulant activity in mouse plasma (aPTT)” value [1] was “potent” and the survival rate ([2]; peptide 0.5 mg/mouse (~25 mg/kg) i.p. 30 min after LPS, monitored 7 days) was “dramatic improvement”. For the same sequence, the body weight ([2]; peptide ~25 mg/kg i.p. 30 min after LPS, weight determined daily) was “started regaining their weight from day three”, the “coagulation PT time” value [3, 5] was “significantly decreased” and the “coagulation aPTT time” value [3, 5] was “significantly decreased”. The “coagulation aPTT and PT levels in survivors” value ([3]; survivors) was “completely normalized”, the IFN-γ in plasma [4] was “significant reduction” and the IL-6 in plasma [4] was “significant reduction”. For the same sequence, the IL-10 in plasma [4] was “significant reduction” and the MCP-1 in plasma [4] was “significant reduction”.
